Measured values reported in PMC11254172 (International Journal for Parasitology: Drugs and Drug …, 2024).
Where two headings read alike, the source gives them in different places.

Columns and labels:
T. gondii = conditions: cited from earlier work
T. gondii oocysts = system: T. gondii oocysts; parameters: method as in Müller et al., 2017b; conditions: 50 mg/kg/day for 5 days; ref Müller et al., 2017b; cited from earlier work
N. caninum = conditions: 50 mg/kg/day for 6 days; ref Winzer et al., 2015; cited from earlier work
Tg-β-gal tachyzoites = experiment: In vitro proliferation assay with T. gondii β-gal tachyzoites in HFF monolayers; type: cell-based, Toxoplasma gondii; conditions: read at 72 h post-infection
Protocol: (§1) N. caninum strain NcSpain-7 and the transgenic strain N. caninum Nc1 expressing β-galactosidase (Nc-β-gal) were grown and maintained in HFF ([Aguado-Martínez et al., 2016]). T. gondii ME49 and T. gondii β-gal tachyzoites (RH background, Tg-β-gal) were cultured as previously described ([Winzer et al., 2015]). T. gondii oocysts of the type II isolate T. gondii sheep Spain 1 (TgShSp1) were generated at the Complutense University of Madrid, Spain, and were stored at 4 °C ([Sánchez-Sánchez et al., 2019]).
(§2) The effects of the compound on HFF viability were assessed by resazurin reduction assay, following the protocols of previous studies ([Anghel et al., 2020]).

[1] = system: N. caninum NcSpain-7 tachyzoites; conditions: in vivo
Protocol: A total of 57 BALB/c mice were used: 38 females and 19 males, all 8 weeks old. […] For the infection, NcSpain-7 tachyzoites were cultured in HFF at 37 °C/5% CO₂ and transferred to BALB/c fibroblasts to be grown under the same conditions for three days prior to infection. Parasites were then collected and counted, and each mouse was infected by subcutaneous injection with 10⁵ NcSpain-7 tachyzoites suspended in 100 μL PBS ([Arranz-Solís et al., 2015]). Infection took place on day 7 post-mating. Pregnant and non-pregnant mice were separated as described for the toxoplasmosis model and evaluated for clinical signs and mortality rates. Pregnant mice gave birth on days 20–23 post-mating. […]
Brains of adult mice and surviving pups were collected directly after sacrifice and parasitic load was quantified by real-time PCR specific for T. gondii ([Costa et al., 2000]) and N. caninum ([Müller et al., 2002]). […] DNA was extracted from all samples using the Nucleospin Kit (Macherey-Nagel, Oensingen, Switzerland) and QuantiFluor dsDNA System (Promega, Madison, Wi, USA) was used to determine the DNA concentration. […] Quantitative real-time PCR was performed using the Light Cycler® System (Roche, Basel, Switzerland). Parasite load was calculated by interpolation from a standard curve of DNA samples from 1000, 100 and 10 T. gondii or N. caninum tachyzoites included in each run. […]

Nc-β-gal tachyzoites = experiment: In vitro proliferation assay with N. caninum β-gal tachyzoites in HFF monolayers; type: cell-based, Neospora caninum; conditions: read at 72 h post-infection
Protocol: as §1, §2

In the case of `CC(C)(C)n1nc(Cc2cccc3ccccc23)c2c(N)ncnc21` [1NM-PP1], the “Morphological effect on T. gondii” value (T. gondii; ref Sugi et al., 2016) is listed as “Multinucleated forms”.

In the case of `CCOc1ccc2cc(-c3nn(CC4CCN(C)CC4)c4ncnc(N)c34)ccc2c1` [BKI-1294], the “Pups with detectable T. gondii DNA in their brain (%)” value (T. gondii oocysts) is listed as 7%, the “Pups with detectable T. gondii DNA in their brain (number)” value (T. gondii oocysts) is listed as 4 out of 55 and the Pup survival rate (N. caninum) is listed as 80%.

With `CC(C)(CO)Cn1nc(-c2ccc3cc(OC4CC4)ccc3c2)c(C(N)=O)c1N` [BKI-1708] the IC50 (Tg-β-gal tachyzoites; Toxoplasma gondii, 72 h, read-out: IC50 Tg-β-gal Pre-infection, compound added concomitantly to infection of HFF) was 0.12 µM, the IC50 (Tg-β-gal tachyzoites; Toxoplasma gondii, read-out: IC50 Tg-β-gal Post-infection, compound added 3 h after infection of HFF) was 0.327 µM and the IC50 (Tg-β-gal tachyzoites; read-out: IC50 Tg-β-gal Pre-infection, compound added concomitantly to infection of HFF) was 0.122 µM. The “Vertical transmission rate (%)” value [1] was 38%, the IC50 (Nc-β-gal tachyzoites; Neospora caninum, 72 h, read-out: IC50 Nc-β-gal Pre-infection, compound added concomitantly to infection of HFF) was 0.48 µM and the IC50 (Nc-β-gal tachyzoites; Neospora caninum, read-out: IC50 Nc-β-gal Post-infection, compound added 3 h after infection of HFF) was 0.964 µM. It also gave an IC50 (Nc-β-gal tachyzoites; read-out: IC50 Nc-β-gal Pre-infection, compound added concomitantly to infection of HFF) of 0.481 µM.

In the case of `N#CC(c1ccc(Cl)cc1)c1c(Cl)cc(-n2ncc(=O)[nH]c2=O)cc1Cl` (stereo not drawn) [diclazuril], the “Morphological effect on T. gondii” value (T. gondii; ref Lindsay et al., 1995) is listed as “formation of multinucleated forms”.
